{"source": "patent US5468754A", "about": "“11,7 substituted camptothecin derivatives and formulations of 11,7 substituted camptothecin derivatives and methods for uses thereof” (priority 1994, dated 1995)", "origin": "cited, not measured here", "key": {"[1]": {"settings": "Ohe et al; 120 hr infusion Q3 wks, 40 mg/m2/d (5-40); cited from earlier work"}, "Leukemia/Lymphoma": {"test_system": "Leukemia/Lymphoma", "settings": "Ohono et al, cited from earlier work"}, "Cervical cancer": {"test_system": "Cervical cancer", "settings": "Takeuchi et al; 100 mg/m^2 weekly, 150 mg/m^2 weeks; 69 pts; cited from earlier work"}, "ovarian": {"test_system": "ovarian", "settings": "Culine et al, 90 min, 150 mg/m2/wk (50-150); cited from earlier work"}, "Small Cell Lung Cancer": {"test_system": "Small Cell Lung Cancer", "settings": "Negoro et al, 100 mg/m^2/week, 41 pts, cited from earlier work"}, "[2]": {"settings": "cited from earlier work"}, "esophagus": {"test_system": "esophagus", "settings": "Culine et al, 90 min, 150 mg/m2/wk (50-150); cited from earlier work"}, "Breast": {"test_system": "Breast", "settings": "Clavel et al, 90 min QDx3 Q21 days; cited from earlier work"}, "[3]": {"settings": "compared with parent compound camptothecin; cited from earlier work"}, "[4]": {"settings": "cited from earlier work", "remark": "listed apart in the source"}, "[5]": {"test_system": "xenografts of human tumors", "settings": "Kawato et al., nude mice; cited from earlier work"}, "[6]": {"settings": "5-day continuous intravenous infusion; cited from earlier work"}, "cervix": {"test_system": "cervix", "settings": "cited from earlier work"}, "[7]": {"settings": "compared with parent compound camptothecin; cited from earlier work", "remark": "listed apart in the source"}, "renal": {"test_system": "renal", "settings": "Culine et al, 90 min, 150 mg/m2/wk (50-150); cited from earlier work"}, "[8]": {"test_system": "Refractory or Relapsed Small Cell Lung Cancer", "settings": "Masudu et al; 100 mg/m^2 weekly; 16 pts; cited from earlier work"}, "[9]": {"test_system": "Human lung cancer cell lines", "settings": "human lung cancer cell lines vs normal cells; cited from earlier work"}, "[10]": {"test_system": "Untreated Non Small Cell Lung Cancer", "settings": "Fukuoka et al; 100 mg/m^2; 73 pts; cited from earlier work"}, "[11]": {"settings": "patients; cited from earlier work"}, "[12]": {"test_system": "Topoisomerase I, purified from calf thymus", "settings": "cited from earlier work"}, "Colon cancer": {"test_system": "Colon cancer", "settings": "Shimada et al; 100 mg/m^2/week or 150 mg/m^2/Q 2 wks; 17 pts; cited from earlier work"}, "[13]": {"test_system": "Topoisomerase I, purified from human colon carcinoma cells", "settings": "cited from earlier work"}, "Colon Ca": {"test_system": "Colon Ca", "settings": "cited from earlier work"}, "Mesothelioma": {"test_system": "Mesothelioma", "settings": "Clavel et al, 90 min QDx3 Q21 days; cited from earlier work"}, "[14]": {"settings": "cited from earlier work", "remark": "listed apart in the source"}, "[15]": {"settings": "Negoro et al, Small Cell Lung Cancer, 100 mg/m^2/week"}, "[16]": {"settings": "Ohono et al, Leukemia/Lymphoma, 62 pts"}, "[17]": {"settings": "Shimada et al, Colon cancer, 17 pts"}, "[18]": {"settings": "Takeuchi et al, Cervical cancer, 69 pts"}, "[19]": {"settings": "Clavel et al, 90 min, QDx3 Q21 days, 115 mg/m2/d (33-115), 37 pts"}, "[20]": {"settings": "Culine et al, 90 min, Q21 days, 150 mg/m2/wk (50-150), 59 pts"}, "[21]": {"settings": "Negoro et al, 30 min infusion weekly, 100 mg/m2 (50-150), 17 pts"}, "[22]": {"settings": "Ohe et al, 120 hr CI Q3 wks, 40 mg/m2/d (5-40), 36 pts"}, "[23]": {"settings": "Rothenberg et al, QWx4 Q42 days, 180 mg/m2/wk (50-180), 32 pts"}, "[24]": {"settings": "Rowinsky et al, 90 min infusion Q21 day, 240 mg/m2 (100-345), 32 pts"}}, "note": "Entries after “also recorded” stand apart in the source; their conditions may differ. Read-outs that look alike come from different tables or passages of the source."}
{"smiles": "CCc1c2c(nc3ccc(OC(=O)N4CCC(N5CCCCC5)CC4)cc13)-c1cc3c(c(=O)n1C2)COC(=O)[C@]3(O)CC", "note": "[CPT-11]", "values": [{"measurement": "Tumor response", "setting": "[1]", "value": "None"}, {"measurement": "RESPONSE (RR)", "setting": "Leukemia/Lymphoma; 20 mg/m^2 bid x7", "value": 25, "unit": "% RR"}, {"measurement": "RESPONSE (PR)", "setting": "Leukemia/Lymphoma; 40 mg/m^2 x5", "value": 34, "unit": "% PR"}, {"measurement": "RESPONSE", "setting": "Leukemia/Lymphoma; 200 mg Q3", "value": "No resp."}, {"measurement": "RESPONSE (CR)", "setting": "Cervical cancer", "value": "SCR"}, {"measurement": "RESPONSE (PR)", "setting": "Cervical cancer", "value": 8, "unit": "PR"}, {"measurement": "RESPONSE (RR)", "setting": "Cervical cancer", "value": 23.6, "unit": "%"}, {"measurement": "Tumor response (partial responses)", "setting": "ovarian", "value": 1, "unit": "PR"}, {"measurement": "RESPONSE", "setting": "Small Cell Lung Cancer; 2 CRs and 7 PRs", "value": 33.3, "unit": "%"}, {"measurement": "RESPONSE (CRs)", "setting": "Small Cell Lung Cancer", "value": 2, "unit": "CRs"}, {"measurement": "RESPONSE (PRs)", "setting": "Small Cell Lung Cancer", "value": 7, "unit": "PRs"}, {"measurement": "Toxicity", "setting": "[2]; Fukuoka et al, Untreated Non Small Cell Lung Cancer, 100 mg/m^2", "value": "Neutropenia; also recorded: diarrhea; also recorded: nausea; also recorded: vomiting; also recorded: anorexia; also recorded: alopecia"}, {"measurement": "pneumonitis", "setting": "[2]; Masudu et al, 100 mg/m^2 weekly, 16 pts", "value": 12.5, "unit": "%"}, {"measurement": "Toxicity", "setting": "[2]; Masudu et al, Refractory or Relapsed Small Cell Lung Cancer, 100 mg/m^2 weekly", "value": "Neutropenia; also recorded: diarrhea"}, {"measurement": "N/V", "setting": "[2]; [15]", "value": 61.5, "unit": "%"}, {"measurement": "alopecia", "setting": "[2]; [15]", "value": 40.0, "unit": "%"}, {"measurement": "diarrhea", "setting": "[2]; [15]", "value": 53.8, "unit": "%"}, {"measurement": "Gastrointestinal", "setting": "[2]; [16]", "value": 76, "unit": "%"}, {"measurement": "Toxicity", "setting": "[2]; [16]", "value": "Thromocytopenia"}, {"measurement": "N/V", "setting": "[2]; [17]", "value": 35, "unit": "%"}, {"measurement": "diarrhea", "setting": "[2]; [17]", "value": 24, "unit": "%"}, {"measurement": "N/V", "setting": "[2]; [18]", "value": 51, "unit": "%"}, {"measurement": "alopecia", "setting": "[2]; [18]", "value": 38.1, "unit": "%"}, {"measurement": "diarrhea", "setting": "[2]; [18]", "value": 39.1, "unit": "%"}, {"measurement": "Tumor response (partial responses)", "setting": "esophagus", "value": 1, "unit": "PR"}, {"measurement": "Tumor response (partial responses)", "setting": "Breast", "value": 1, "unit": "PR"}, {"measurement": "antitumor activity", "setting": "[3]", "value": "retain the significant antitumor activity of the parent compound"}, {"measurement": "Fractional amount of lactone species, CPT-11 CpMax Based", "setting": "[4]; 50 mg/m2 single dose I.V.", "value": 0.51}, {"measurement": "Fractional amount of lactone species, CPT-11 CpMax Based", "setting": "[4]; 80 mg/m2 single dose I.V.", "value": 0.44}, {"measurement": "Fractional amount of lactone species, CPT-11 CpMax Based", "setting": "[4]; 100 mg/m2 single dose I.V.", "value": 0.53}, {"measurement": "Fractional amount of lactone species, CPT-11 CpMax Based", "setting": "[4]; 125 mg/m2 single dose I.V.", "value": 0.55}, {"measurement": "Fractional amount of lactone species, CPT-11 CpMax Based", "setting": "[4]; 150 mg/m2 single dose I.V.", "value": 0.42}, {"measurement": "Fractional amount of lactone species, CPT-11 CpMax Based", "setting": "[4]; 180 mg/m2 single dose I.V.", "value": 0.42}, {"measurement": "overall fractional concentration of the lactone species", "setting": "[4]; through a range of doses, total AUC and CpMax data", "value": "fairly constant through a range of doses"}, {"measurement": "sensitivity of human tumors vs their ability to produce SN38", "setting": "[5]", "value": "independent of their ability to produce SN38"}, {"measurement": "conversion of CPT-11 to SN38", "setting": "[6]", "value": "saturable process"}, {"measurement": "Tumor response (partial responses)", "setting": "cervix; Culine et al, cervix, 90 min, 150 mg/m2/wk (50-150)", "value": 1, "unit": "PR"}, {"measurement": "Tumor response (partial responses)", "setting": "cervix; Rowinsky et al, Cervix Ca, 90 min infusion Q21 day, 240 mg/m2 (100-345)", "value": 1, "unit": "PR"}, {"measurement": "Toxicity", "setting": "[7]", "value": "less sporadic toxicities"}, {"measurement": "Tumor response (partial responses)", "setting": "renal", "value": 1, "unit": "PR"}, {"measurement": "RESPONSE (PRs)", "setting": "[8]", "value": 47, "unit": "%"}, {"measurement": "RESPONSE (PRs, patients)", "setting": "[8]", "value": "7/15"}, {"measurement": "conversion of CPT-11 to SN38", "setting": "[9]", "value": "convert less CPT-11 to SN38 than normal cells"}, {"measurement": "RESPONSE (PRs)", "setting": "[10]", "value": 31.9, "unit": "%"}, {"measurement": "RESPONSE (PRs, patients)", "setting": "[10]", "value": "23/72"}, {"measurement": "variability of metabolic conversion of CPT-11 to SN38", "setting": "[11]", "value": "large range of interpatient variability; also recorded: varies from patient to patient"}, {"measurement": "inhibition of Topoisomerase I", "setting": "[12]", "value": "inhibited"}, {"measurement": "RESPONSE", "setting": "Colon cancer", "value": 46, "unit": "%"}, {"measurement": "RESPONSE (PR, patients)", "setting": "Colon cancer", "value": "6/17"}, {"measurement": "inhibition of Topoisomerase I", "setting": "[13]", "value": "inhibited"}, {"measurement": "Tumor response (partial responses)", "setting": "Colon Ca; Rothenberg et al, QWx4 Q42 days, 180 mg/m2/wk (50-180)", "value": 2, "unit": "PRs"}, {"measurement": "Tumor response (partial responses)", "setting": "Colon Ca; Rowinsky et al, 90 min infusion Q21 day, 240 mg/m2 (100-345)", "value": 1, "unit": "PR"}, {"measurement": "Tumor response (partial responses)", "setting": "Mesothelioma", "value": 1, "unit": "PR"}, {"measurement": "Toxicity", "setting": "[14]; [19]", "value": "diarrhea; also recorded: nausea; also recorded: vomiting; also recorded: alopecia"}, {"measurement": "Toxicity (Dose Limiting Toxicity)", "setting": "[14]; [19]", "value": "Neutropenia"}, {"measurement": "Toxicity", "setting": "[14]; [20]", "value": "vomiting; also recorded: alopecia; also recorded: fatigue; also recorded: stomatitis"}, {"measurement": "Toxicity (Dose Limiting Toxicity)", "setting": "[14]; [20]", "value": "Neutropenia; also recorded: diarrhea"}, {"measurement": "Toxicity", "setting": "[14]; [21]", "value": "N/V and alopecia and liver"}, {"measurement": "Toxicity (Dose Limiting Toxicity)", "setting": "[14]; [21]", "value": "Neutropenia; also recorded: Diarrhea"}, {"measurement": "Toxicity", "setting": "[14]; [22]", "value": "nausea; also recorded: vomiting; also recorded: thromobo-; also recorded: anemia; also recorded: liver"}, {"measurement": "Toxicity (Dose Limiting Toxicity)", "setting": "[14]; [22]", "value": "Diarrhea"}, {"measurement": "major reported, dose-limiting toxicities", "setting": "[14]; Phase I and Phase II clinical trials of CPT-11", "value": "Neutropenia and diarrhea"}, {"measurement": "Toxicity", "setting": "[14]; [23]", "value": "Neutropenia; also recorded: nausea; also recorded: vomiting; also recorded: alopecia"}, {"measurement": "Toxicity (Dose Limiting Toxicity)", "setting": "[14]; [23]", "value": "Diarrhea"}, {"measurement": "Toxicity", "setting": "[14]; [24]", "value": "vomiting and diarrhea and pain and flushing"}, {"measurement": "Toxicity (Dose Limiting Toxicity)", "setting": "[14]; [24]", "value": "Neutropenia"}]}
